Read-outs that look alike come from different tables or passages of the source.
Columns and labels:
Test in all cases: TMA inhibition in bacterial whole cells (LC–MS/MS of d9-TMA from d9-choline)
[1] = test system: Anaerococcus hydrogenalis DSM 7454; assay type: cell-based; settings: 1 mM d9-choline in PBS, 75 min, 37°C, anaerobic
Experimental: (§1) For TMA inhibition assays, E. coli and P. mirabilis were grown in NCE medium supplemented with 20 mM choline chloride, A. hydrogenalis was grown in MEGA medium supplemented with 3 mM choline chloride, and C. sporogenes was grown in BHI medium supplemented with 20 mM of choline chloride to induce expression of the cut gene cluster. For MIC assays, all bacteria strains were grown in MEGA medium.
(§2) Compounds were stored as 10 mM DMSO stocks at –20°C and diluted in DMSO to prepare varying concentrations of inhibitors for testing. Bacteria were grown anaerobically overnight in media supplemented with choline as described above. Cells were pelleted and resuspended in PBS, and d9-choline chloride was added to a final concentration of 1 mM. The final OD600 of the PBS cell resuspensions is as follows: 0.4 (E. coli), 0.15–0.2 (P. mirabilis), 0.2 (C. sporogenes), and 0.4 (A. hydrogenalis). The resuspended cells were added to 96-well plates containing inhibitors (final concentration of 1% DMSO, with final inhibitor concentrations ranging between 0 and 325 µM). The plates were sealed and incubated for 75 min (or 90 min for P. mirabilis) at 37°C. Following incubation, the plates were removed from the anaerobic chamber and analyzed immediately or kept at –20°C until LC–MS/MS analysis. Each inhibitor concentration was tested in triplicate. EC50 values were calculated with GraphPad Prism by fitting the log(inhibitor) vs response—Variable slope (four-parameter) model for non-linear regression.
(§3) Samples were kept frozen until analysis and kept cold on ice during handling due to the volatility of TMA. Bacterial cell resuspensions in PBS were diluted 100-fold in LCMS-grade acetonitrile with 0.1% formic acid to lyse cells, precipitate proteins, and extract metabolites. Samples were centrifuged at 4,000 rpm for 10 min at 4°C to pellet proteins. The supernatants were then further diluted 20-fold in LCMS-grade acetonitrile with 0.1% formic acid, and the resulting solution was analyzed by LC–MS/MS.
(§4) LC–MS/MS analysis was performed on an Agilent 1290/6470 Triple Quadrupole LC–MS instrument (Agilent Technologies) using electrospray ionization. The mass spectrometer was operated in multiple reaction monitoring (MRM) mode with positive ionization monitoring. The precursor–product ion pairs used in MRM mode were as follows: m/z 69.1m/z → 49.1 (d9-TMA) and m/z 113.2 m/z → 69.1 (d9-choline). The capillary voltage was set to 4.0 kV, and the fragmentor voltage was set to 30 V (d9-TMA) and 115 V (d9-choline). The collision energy for the precursor–product ion pairs was set to 29 V (d9-TMA) and 21 V (d9-choline). MS^1 resolution was set to wide and MS^2 resolution to unit. The drying gas temperature was maintained at 250°C, with a flow rate of 11 L/min and a nebulizer pressure of 45 psi. The time filter width used was 0.07 min. The injection volume of all samples was 1 μL. Samples were injected onto InfinityLab Poroshell 120 (Agilent) HILIC columns (2.7 μm, 100 mm × 2.1 mm, 100 Å) preceded by InfinityLab Poroshell 120 HILIC guard columns (2.1 mm, 1.9µm UHPLC guard). The LC conditions on the binary pump were as follows: a gradient of 5–35% A increasing over 1.95 min (1.2 mL/min), a gradient of 35–5% A decreasing over 0.05 min (1.6 mL/min), and held at 5% A for 0.5 min (2 mL/min). […] Solvent A was 10 mM ammonium formate with 0.1% formic acid, and solvent B was acetonitrile with 0.1% formic acid. Data analysis was performed with Mass Hunter Workstation Data Acquisition and Qualitative Analysis software (Agilent Technologies).

[2] = test system: Proteus mirabilis ATCC 29906; assay type: cell-based; settings: 1 mM d9-choline in PBS, 90 min, 37°C, anaerobic; for EC50: read-out: EC50 in whole cells, P. mirabilis (TMA inhibition)
Experimental: as §1, §2, §3, §4

[3] = test system: Clostridium sporogenes ATCC 15579; assay type: cell-based; settings: 1 mM d9-choline in PBS, 75 min, 37°C, anaerobic
Experimental: as §1, §2, §3, §4

[4] = test system: E. coli MS 200-1; assay type: cell-based, Escherichia coli MS 200-1
Experimental: as §1, §2, §3, §4

[5] = Anaerococcus hydrogenalis, DSM7454, 1.25 h
[6] = Proteus mirabilis, ATCC29906, 1.5 h
[7] = Clostridium sporogenes, ATCC15579, 1.25 h
[8] = Escherichia coli, MS2001, 1.25 h, 1 mM d9-choline in PBS, 75 min, 37°C, anaerobic
[9] = 1 mM d9-choline in PBS, 75 min, 37°C, anaerobic

Row | SMILES | EC50 [2, 6] [µM] | EC50 [3, 7] [µM] | EC50 [4, 8] [µM] | EC50 [2] [µM] | EC50 [3] [µM] | EC50 [4, 9] [µM] | other results
1 | Cc1ccc(-c2cc(C(=O)NCCCCCN3CCC(C)CC3)c(C)[nH]2)cc1C [C00005] | 66 | 84 | 11 | – | – | – | EC50 [1, 5]: 33 µM
2 | Cc1ccc(-c2ncc(C(=O)NCCCN3CCC(C)CC3)s2)cc1C [Compound 14] | – | – | – | 197 | 215 | 27 | –
3 | Cc1ccc(-c2ccc(C(=O)NCCCN3CCC(C)CC3)[nH]2)cc1C [Compound 10] | – | – | – | 63 | 312 | 98 | –
4 | Cc1ccc(-c2cc(C(=O)NCCCN3CCC(C)CC3)c(C)[nH]2)cc1C [C00002] | – | – | 9 | – | – | – | –
5 | Cc1cc(C)cc(-c2cc(C(=O)NCCCN3CCC(C)CC3)c(C)[nH]2)c1 [Compound 25] | – | – | – | 28 | 133 | 6 | EC50 [1]: 19 µM
6 | Cc1ccc(-c2cc(C(=O)NCCC3=CCCCC3)c(C)[nH]2)cc1C [C00006] | – | – | > 100 | – | – | – | EC50 in whole cells, C. sporogenes (TMA inhibition) [3]: No inhibition at 100
7 | CCCN(CCC)CCNC(=O)c1cc(-c2ccc(C)c(C)c2)[nH]c1C [C00010] | > 312 | > 312 | 200 | – | – | – | –
8 | Cc1ccc(-c2cc(C(=O)NCCCN3CCC(C)CC3)c(C)n2C2CCCC2)cc1C [Compound 17] | – | – | – | – | 8 | 69 | –
9 | Cc1ccc(-c2c[nH]c(C(=O)NCCCN3CCC(C)CC3)c2)cc1C [Compound 11] | – | – | – | 42 | > 312 | 13 | –
10 | Cc1ccc(-c2cc(C(=O)NCCCN3CCC(C)CC3)cn2C)cc1C [Compound 15] | – | – | – | 98 | – | 21 | –
11 | Cc1ccc(-c2cc(C(=O)NCCCN3CCCCCC3)c(C)[nH]2)cc1C [C00016] | 40 | 104 | 2 | – | – | – | EC50 [1, 5]: 43 µM
12 | Cc1ccc(-c2cc(C(=O)NCCCN3CCCC3)c(C)[nH]2)cc1C [C00014] | 104 | 78 | 11 | – | – | – | EC50 [1, 5]: 83 µM
13 | Cc1ccc(-c2cc(C(=O)NCCN)c(C)[nH]2)cc1C [C00008] | – | – | 140 | – | – | – | EC50 in whole cells, P. mirabilis (TMA inhibition) [2]: No inhibition at 312; EC50 in whole cells, C. sporogenes (TMA inhibition) [3]: No inhibition at 312
14 | C#CCn1c(-c2ccc(C)c(C)c2)cc(C(=O)NCCCN2CCC(C)CC2)c1C [Compound 16] | – | – | – | – | 5 | 39 | –
15 | Cc1ccc(-c2cc(C(=O)NCCCN3CCC(C)CC3)c(C)[nH]2)cc1 [Compound 24] | – | – | – | 131 | – | 92 | –
16 | Cc1ccc(-c2cc(C(=O)NCCCCCN3CCCCCC3)c(C)[nH]2)cc1C [C00019] | – | – | 2 | – | – | – | –
17 | COCCNC(=O)c1cc(-c2ccc(C)c(C)c2)[nH]c1C [C00007] | – | – | – | – | – | – | EC50 in whole cells, C. sporogenes (TMA inhibition) [3]: No inhibition at 100; EC50 in whole cells, E. coli (TMA inhibition) [4, 9]: No inhibition at 100

Row | SMILES | EC50 [2, 6] [µM] | EC50 [3, 7] [µM] | EC50 [4, 8] [µM] | EC50 [2] [µM] | EC50 [3] [µM] | EC50 [4, 9] [µM] | other results
18 | Cc1ccc(-c2cc(C(=O)NCCCCN3CCC(C)CC3)c(C)[nH]2)cc1C [C00004] | 35 | 138 | 5 | – | – | – | EC50 [1, 5]: 27 µM
19 | Cc1ccc(-c2cc(C(=O)NCCCN3CCC(C)CC3)cs2)cc1C [Compound 13] | – | – | – | 50 | 85 | 14 | –
20 | Cc1ccc(-c2cc(C(=O)NCCCN3CCOCC3)c(C)[nH]2)cc1C [C00011] | – | – | > 125 | – | – | – | EC50 in whole cells, P. mirabilis (TMA inhibition) [2]: No inhibition at 312; EC50 in whole cells, C. sporogenes (TMA inhibition) [3]: No inhibition at 312
21 | Cc1ccc(-c2cc(C(=O)NCCCN3CCCCCCC3)c(C)[nH]2)cc1C [C00017] | 28 | 40 | 3 | – | – | – | EC50 [1, 5]: 28 µM
22 | Cc1ccc(-c2cc(C(=O)NCCN3CCC(C)CC3)c(C)[nH]2)cc1C [C00003] | 64 | 213 | 7 | – | – | – | EC50 [1, 5]: 176 µM
23 | CCc1[nH]c(-c2ccc(C)c(C)c2)cc1C(=O)NCCCN1CCC(C)CC1 [Compound 9] | – | – | – | – | 103 | 35 | –
24 | Cc1ccc(-c2[nH]cc(C(=O)NCCCN3CCC(C)CC3)c2C)cc1C [Compound 8] | – | – | – | 131 | 97 | > 125 | Fold increase of EC50 in E. coli ([4]; compared with compound 6): more than 10 fold
25 | Cc1[nH]c(-c2ccccc2)cc1C(=O)NCCCN1CCC(C)CC1 [Compound 22] | – | – | – | 157 | 147 | 7 | EC50 [1]: 24 µM
26 | Cc1ccc(-c2cc(C(=O)NCCCN3CCC(C)CC3)c(C)o2)cc1C [Compound 12] | – | – | – | > 312 | – | 15 | EC50 [1]: 54 µM
27 | Cc1[nH]c(C2CCCCC2)cc1C(=O)NCCCN1CCC(C)CC1 [Compound 21] | – | – | – | – | 8 | 51 | EC50 [1]: 32 µM
28 | Cc1ccc(-c2cc(C(=O)NCCCN3CCC(C)CC3)c(C)n2-c2ccccc2)cc1C [Compound 18] | – | – | – | – | 3 | 489 | –
29 | Cc1ccc(-c2cc(C(=O)NCCCN3CCN(C)CC3)c(C)[nH]2)cc1C [C00012] | 58 | 92 | 14 | – | – | – | EC50 in whole cells, A. hydrogenalis (TMA inhibition) [1]: No inhibition at 312
30 | CCCNCCNC(=O)c1cc(-c2ccc(C)c(C)c2)[nH]c1C [C00009] | > 312 | > 312 | 60 | – | – | – | –
31 | Cc1ccc(-c2cc(C(=O)NCCCCN3CCCCCC3)c(C)[nH]2)cc1C [C00018] | 33 | 68 | 8 | – | – | – | EC50 [1, 5]: 7 µM
32 | Cc1ccc(-c2cc(C(=O)NCCCN3CCCCC3)c(C)[nH]2)cc1C [C00015] | 193 | 267 | 10 | – | – | – | EC50 [1, 5]: 244 µM
33 | Cc1ccc(-c2cc(C(=O)NCCCN3CCN(C)C(=O)C3)c(C)[nH]2)cc1C [C00013] | – | > 312 | > 125 | – | – | – | EC50 in whole cells, P. mirabilis (TMA inhibition) [2]: No inhibition at 312

Reference: publication PMC12977544, “Phenotypic high-throughput screening identifies modulators of gut microbial choline metabolism” (mBio, 2026)
